Consider two compounds from patent publication US10202412B2, “β-D-2′-deoxy-2′-substituted-4′-substituted-2-substituted-N6-substituted-6-aminopurinenucleotides for the treatment of paramyxovirus and orthomyxovirus infections” (Atea Pharmaceuticals, Inc., priority 2016, dated 2019).

The nature of data set [1]: Hamster lung triphosphate assay. It is filed as in vivo, Golden Syrian hamsters. To be noted: analog triphosphate in hamster lung tissue 72 h after oral target dose of 50 mg/kg in PEG400. The protocol: Male Golden Syrian hamsters (n=3 per test compound) were fasted overnight and then administered test compounds in PEG400 at a target dose of 50 mg/kg by oral gavage. Food was returned 4 h after dosing. At 72 h post dose, animals were anesthetized and a sample of lung tissue was removed and flash-frozen in liquid nitrogen. Approximately 0.5 g of frozen tissue was homogenized using a Polytron homogenizer in 5 volumes homogenization solution (MeOH:50% aqueous KOH:268 mM EDTA, pH 8, 1750:5:750, v/v) in a dry ice/ethanol bath. Supernatants were prepared by centrifugation and analyzed by LC-MS/MS for concentrations of the corresponding analog triphosphates. See Table 7 below for the 72 hour lung triphosphate concentration. After 72 hours, the lung triphosphate concentration following administration of Compound AB and Compound AC was greater than 800 ng/g.

Data set [2] has as its system Differentiated normal human bronchial epithelial (dNHBE) cells. In words: dNHBE assay: toxicity evaluated microscopically. It is filed as cell-based. The arrangement: unit not given here.
For data set [3], the system named is Respiratory syncytial virus (RSV) type A, strain A2 (ATCC VR-1540). In words: dNHBE assay: RSV virus yield reduction (EC90). The format is cell-based. The following applies: RSV (A2) in dNHBE cells, concentration reducing virus yield by 1 log10, mean of at least two experiments.
Data set [4] has as its system respiratory syncytial virus A2 (ATCC VR-1540). In words: Cytopathic effect assay with RSV A2 in HEp-2 cells. The format is cell-based. To be noted: human respiratory syncytial virus; RSV in HEp-2 cells, CPE inhibition, neutral red. The protocol:
(§1) Test compounds were dissolved in DMSO and then prepared in eight half-log dilutions in MEM medium with 50 μg/mL gentamicin and 2% FBS (MA-104 cells only). Each dilution was added to 5 wells of a 96-well plate with 80-100% confluent cells (either MA-104 cells or HEp-2 cells). Three wells of each dilution were infected with respiratory syncytial virus A2 (ATCC VR-1540) and two wells remained uninfected as toxicity controls. After maximum cytopathic effect (CPE) was observed microscopically in untreated virus control wells, plates were stained with neutral red dye for approximately 2 hours, then supernatant dye was removed and the incorporated dye was extracted in 50:50 Sorensen citrate buffer/ethanol and read on a spectrophotometer. Optical density values were normalized based on cell and virus controls, then the concentration of test compound required to inhibit CPE by 50% (EC50) was calculated by regression analysis. The reported EC50 value is the mean of at least two experiments. The concentration of compound that caused 50% CPE in the absence of virus was similarly calculated to determine cytotoxicity (CC50).
(Cytopathic effects are the visible damage that an infection or toxin causes in cultured cells.)

The test system is the same in data set [5]. The data set can be described thus: Cytopathic effect assay with RSV A2 in MA-104 cells. It is filed as cell-based. The following applies: human respiratory syncytial virus, MA104, CPE inhibition, neutral red. The protocol:
as §1

The next data set has as its system HEp-2 cells. In words: Cytotoxicity in uninfected HEp-2 cells, neutral red. Details: unit not given here. The following applies: absence of virus. The format is cell-based. As for the experimental part:
as §1

The term EC90 denotes the point of the concentration-response curve where the effect stands at 90%. As for `CC(C)OC(=O)[C@H](C)N[P@](=O)(OC[C@@]1(C)O[C@@H](n2cnc3c(N(C)C)nc(NC(=O)C(C)C)nc32)[C@H](F)[C@@H]1O)Oc1ccccc1` [AO, (S)-Isopropyl 2-(((S)-(((2R,3R,4R,5R)-5-(6-(dimethylamino)-2-isobutyramido-9H-purin-9-yl)-4-fluoro-3-hydroxy-2-methyltetrahydrofuran-2-yl)methoxy)(phenoxy)phosphoryl)amino) propanoate], the “72 h Lung TP Concentration” value in data set [1] is recorded as 108 ng/g. The Visual toxicity in data set [2] was more than 1.5. The compound further displayed an EC90 in data set [3] of 0.096 µM.
A word on the EC50: it is the midpoint of the concentration-response curve. `CC[C@]1(COP(=O)(N[C@@H](C)C(=O)OC(C)C)Oc2ccccc2)O[C@@H](n2cnc3c(N(C)C)nc(N)nc32)[C@H](F)[C@@H]1O` (stereo partly drawn) [Compound P, (2S)-Isopropyl 2-(((((2R,3R,4R,5R)-5-(2-amino-6-(dimethylamino)-9H-purin-9-yl)-2-ethyl-4-fluoro-3-hydroxytetrahydrofuran-2-yl)methoxy)(phenoxy)-phosphoryl)amino) propanoate]: the values for the half-maximal effective concentration (EC50) in data set [4] and in data set [5] were more than 100 µM and more than 164 µM, respectively. The Visual toxicity in data set [2] is listed as more than 143. The compound also registered a 90% effect concentration (EC90) in data set [3] (human respiratory syncytial virus) of 88.6 µM. In addition, in the data set with HEp-2 cells, the TC50 is reported as more than 100.
